The values below come from patent US11866518B2, “Bicyclic peptide ligands specific for TSLP” (BicycleTx Limited, priority 2020, dated 2024).

T1 sequence (Q969D9 29-159): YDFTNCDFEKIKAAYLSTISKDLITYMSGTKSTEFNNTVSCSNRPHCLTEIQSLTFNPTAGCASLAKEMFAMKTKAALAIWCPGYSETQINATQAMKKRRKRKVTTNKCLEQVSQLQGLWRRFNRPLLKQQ

One assay addresses T1, TSLP (Homo sapiens, UniProt Q969D9). The assay is described as follows: Human peripheral blood mononuclear cell assay (TSLP-induced CCL17/TARC). The settings on record: human PBMCs; 10 μM peptide; 50 pM TSLP; 24 hours; read-out: CCL17 % Inhibition @ 10 μM, 50 pM TSLP. Also noted: host or cells: added to human PBMCs from healthy donors. Format: cell-based. How it is done: Human peripheral blood mononuclear cells (PMBCs) were obtained from heparinized whole blood (healthy donors) by density gradient centrifugation using Lymphoprep (StemCell Technologies, Vancouver, BC) according to the manufacturers instructions. The PBMCs were washed twice with PBS containing 2 mM EDTA and 2% fetal calf serum (FCS) and reconstituted in RPMI containing 10% FCS and 2% PenStrep at a final concentration of 3 million cells/mL. This cell suspension (100 μL) was aliquoted into the wells of a 96-well flat bottom tissue culture plate. 5 μL of bicycle peptide or vehicle (0.1% DMSO in complete medium) was then added and mixed with 5 μL of TSLPvehicle (complete medium). […] The plate was incubated for 30 minutes are rt. 10 μL of this mixture was added to cells and the plate was incubated for 24 hours in a 10% CO2, humidified incubator at 37° C. The plate was centrifuged at 300×g for 5 min and the collected supernatants frozen at −20° C. for subsequent CCL17/TARC analysis.
CCL17/TARC was determined by MSD (MesoScale Discovery, Maryland, USA) according to the manufacturer's instructions.
As to `CC(=O)N[C@H]1CSCCC(=O)N2CN3CN(C2)C(=O)CCSC[C@H](NC(=O)[C@H](CC(=O)O)NC(=O)[C@H](CCC(=O)O)NC(=O)[C@H](CC(C)C)NC(=O)[C@H](Cc2c[nH]c4ccccc24)NC(=O)[C@H](CCC(N)=O)NC1=O)C(=O)N[C@@H](Cc1c[nH]c2ccccc12)C(=O)N[C@@H](CCCNC(=N)N)C(=O)NCC(=O)N[C@@H](Cc1ccc(F)cc1)C(=O)N[C@H](C(N)=O)CSCCC3=O` [Example 17, Ac-(SEQ ID NO: 15)], the inhibition – broadly, the drop in the measured response relative to a control, in per cent – at 10 µM was determined as 1%. Still for that read-out and setting: then `CC(=O)N[C@H]1CSCCC(=O)N2CN3CN(C2)C(=O)CCSC[C@H](NC(=O)[C@H](CC(=O)O)NC(=O)[C@H](CCC(=O)O)NC(=O)[C@H](CC(C)C)NC(=O)[C@H](Cc2c[nH]c4ccccc24)NC(=O)[C@H](CCC(N)=O)NC1=O)C(=O)N[C@@H](Cc1c[nH]c2ccccc12)C(=O)N[C@@H](CCCNC(=N)N)C(=O)NCC(=O)N[C@@H](Cc1ccc(F)c(F)c1)C(=O)N[C@H](C(N)=O)CSCCC3=O` [Example 22, Ac-(SEQ ID NO: 20)], with 41%; and `CSCC[C@H](NC(=O)[C@H](CC(=O)O)NC(=O)CNC(=O)[C@H](CC(=O)O)NC(=O)[C@H](C)NC(=O)[C@@H]1CSCCC(=O)N2CN3CN(C2)C(=O)CCSC[C@H](NC(=O)[C@H](CC(=O)O)NC(=O)[C@H](CCC(=O)O)NC(=O)[C@H](CC(C)C)NC(=O)[C@H](Cc2c[nH]c4ccccc24)NC(=O)[C@H](CCC(N)=O)NC(=O)[C@@H](NC(=O)[C@H](C)N)CSCCC3=O)C(=O)N[C@@H](Cc2c[nH]c3ccccc23)C(=O)N[C@@H](CCCNC(=N)N)C(=O)NCC(=O)N[C@@H](Cc2ccccc2)C(=O)N1)C(=O)N[C@@H](CC(C)C)C(N)=O` [Example 42, A-(SEQ ID NO: 38)-ADGDML], with below 20%.

The assay is the same for the next values; noted with them: read-out: CCL17 % Inhibition @ 10 μM, […] TSLP.
As to `CC(=O)N[C@H]1CSCCC(=O)N2CN3CN(C2)C(=O)CCSC[C@H](NC(=O)[C@H](CC(=O)O)NC(=O)[C@H](CCC(=O)O)NC(=O)[C@H](CC(C)C)NC(=O)[C@H](Cc2c[nH]c4ccccc24)NC(=O)[C@H](CCC(N)=O)NC1=O)C(=O)N[C@@H](Cc1c[nH]c2ccccc12)C(=O)N[C@@H](CCCNC(=N)N)C(=O)NCC(=O)N[C@@H](Cc1ccc(Cl)cc1)C(=O)N[C@H](C(N)=O)CSCCC3=O` [Example 14, Ac-(SEQ ID NO: 12)], the inhibition at 10 µM is 14%. Turning to `CC(=O)N[C@H]1CSCCC(=O)N2CN3CN(C2)C(=O)CCSC[C@H](NC(=O)[C@H](CC(=O)O)NC(=O)[C@H](CCC(=O)O)NC(=O)[C@H](CC(C)C)NC(=O)[C@H](Cc2c[nH]c4ccccc24)NC(=O)[C@H](CCC(N)=O)NC1=O)C(=O)N[C@@H](Cc1c[nH]c2ccccc12)C(=O)N[C@@H](CCCNC(=N)N)C(=O)NCC(=O)N[C@@H](Cc1cccc(Cl)c1)C(=O)N[C@H](C(N)=O)CSCCC3=O` [Example 32, Ac-(SEQ ID NO: 29)], the inhibition at 10 µM amounted to 14%. The same measure, in the same setting: to `CSCC[C@H](NC(=O)[C@H](CC(=O)O)NC(=O)CNC(=O)[C@H](CC(=O)O)NC(=O)[C@H](C)NC(=O)[C@@H]1CSCCC(=O)N2CN3CN(C2)C(=O)CCSC[C@H](NC(=O)[C@H](CC(=O)O)NC(=O)[C@H](CCC(=O)O)NC(=O)[C@H](CC(C)C)NC(=O)[C@H](Cc2c[nH]c4ccccc24)NC(=O)[C@H](CCC(N)=O)NC(=O)[C@@H](NC(=O)[C@H](C)N)CSCCC3=O)C(=O)N[C@@H](Cc2c[nH]c3ccccc23)C(=O)N[C@@H](CCCNC(=N)N)C(=O)NCC(=O)N[C@@H](Cc2ccccc2)C(=O)N1)C(=O)N[C@@H](CC(C)C)C(N)=O` [Example 42, A-(SEQ ID NO: 38)-ADGDML] belongs 47%; to `CC(=O)N[C@H]1CSCCC(=O)N2CN3CN(C2)C(=O)CCSC[C@H](NC(=O)[C@H](CC(=O)O)NC(=O)[C@H](CCC(=O)O)NC(=O)[C@H](CC(C)(C)C)NC(=O)[C@H](Cc2c[nH]c4ccccc24)NC(=O)[C@H](CCC(N)=O)NC1=O)C(=O)N[C@@H](Cc1c[nH]c2ccccc12)C(=O)N[C@@H](CCCNC(=N)N)C(=O)NCC(=O)N[C@@H](Cc1ccccc1)C(=O)N[C@H](C(N)=O)CSCCC3=O` [Example 44, Ac-(SEQ ID NO: 39)], 52%. With `CC(C)C[C@@H]1NC(=O)[C@H](Cc2c[nH]c3ccccc23)NC(=O)[C@H](CCC(N)=O)NC(=O)[C@@H](NC(=O)[C@H](CCC(=O)O)NC(=O)[C@H](C)NC(=O)[C@H](CO)NC(=O)[C@H](CC(=O)O)NC(=O)[C@@H](NC(=O)CN)[C@@H](C)O)CSCCC(=O)N2CN3CN(C2)C(=O)CCSC[C@H](NC(=O)[C@H](CC(=O)O)NC(=O)[C@H](CCC(=O)O)NC1=O)C(=O)N[C@@H](Cc1c[nH]c2ccccc12)C(=O)N[C@@H](CCCNC(=N)N)C(=O)NCC(=O)N[C@@H](Cc1ccccc1)C(=O)N[C@H](C(=O)N[C@@H](C)C(N)=O)CSCCC3=O` [Example 45, GTDSAE-(SEQ ID NO: 38)-A], the inhibition at 10 µM was found to be 0%. For `CC(=O)N[C@H]1CSCCC(=O)N2CN3CN(C2)C(=O)CCSC[C@H](NC(=O)[C@H](CC(=O)O)NC(=O)[C@H](CCC(=O)O)NC(=O)[C@H](CC(C)C)NC(=O)[C@H](Cc2c[nH]c4ccccc24)NC(=O)[C@H](CCC(N)=O)NC1=O)C(=O)N[C@@H](Cc1c[nH]c2ccccc12)C(=O)N[C@@H](CCCNC(=N)N)C(=O)NCC(=O)N[C@@H](Cc1cccc2ccccc12)C(=O)N[C@H](C(N)=O)CSCCC3=O` [Example 47, Ac-(SEQ ID NO: 41)], the inhibition at 10 µM is -7%. The same measure, in the same setting: to `CC(=O)N[C@H]1CSCCC(=O)N2CN3CN(C2)C(=O)CCSC[C@H](NC(=O)[C@H](CC(=O)O)NC(=O)[C@H](CCC(=O)O)NC(=O)[C@H](CC(C)C)NC(=O)[C@H](Cc2c[nH]c4ccccc24)NC(=O)[C@H](CCC(N)=O)NC1=O)C(=O)N[C@@H](Cc1c[nH]c2ccccc12)C(=O)N[C@@H](CCCNC(=N)N)C(=O)NCC(=O)N[C@@H](Cc1ccc2ccccc2c1)C(=O)N[C@H](C(N)=O)CSCCC3=O` [Example 50, Ac-(SEQ ID NO: 42)] belongs 33%; to `CSCC[C@H](NC(=O)[C@@H](N)[C@@H](C)O)C(=O)N[C@@H](CCC(=O)O)C(=O)N[C@@H](Cc1ccc(O)cc1)C(=O)N[C@@H](CCCNC(=N)N)C(=O)N[C@@H](CC(=O)O)C(=O)N[C@H]1CSCCC(=O)N2CN3CN(C2)C(=O)CCSC[C@H](NC(=O)[C@H](CC(=O)O)NC(=O)[C@H](CCC(=O)O)NC(=O)[C@H](CC(C)C)NC(=O)[C@H](Cc2c[nH]c4ccccc24)NC(=O)[C@H](CCC(N)=O)NC1=O)C(=O)N[C@@H](Cc1c[nH]c2ccccc12)C(=O)N[C@@H](CCCNC(=N)N)C(=O)NCC(=O)N[C@@H](Cc1ccccc1)C(=O)N[C@H](C(=O)N[C@@H](C)C(N)=O)CSCCC3=O` [Example 56, TMEYRD-(SEQ ID NO: 38)-A], 40%; to `CC(C)C[C@@H]1NC(=O)[C@H](Cc2c[nH]c3ccccc23)NC(=O)[C@H](CCC(N)=O)NC(=O)[C@@H](NC(=O)[C@H](C)N)CSCCC(=O)N2CN3CN(C2)C(=O)CCSC[C@H](NC(=O)[C@H](CC(=O)O)NC(=O)[C@H](CCC(=O)O)NC1=O)C(=O)N[C@@H](Cc1c[nH]c2ccccc12)C(=O)N[C@@H](CCCNC(=N)N)C(=O)NCC(=O)N[C@@H](Cc1ccccc1)C(=O)N[C@H](C(=O)N[C@@H](C)C(N)=O)CSCCC3=O` [Example 68, A-(SEQ ID NO: 38)-A], 33%.

A further assay addresses T1, TSLP. Description: Human TSLP Surface Plasmon Resonance (SPR) binding assay. Also noted: The resulting construct spCD33-6×HN-TEV-hTSLP(29-159)-Avi; 6xHN tag with TEV site (N, cleaved yes); made in house; host or cells: Expi293F cells. The settings on record: biotinylated human TSLP immobilized on streptavidin chip; 20° C.; steady-state or kinetic 1:1 fit; read-out: hTSLP SPR Kd.
As to `CC(=O)N[C@H]1CSCCC(=O)N2CN3CN(C2)C(=O)CCSC[C@@H]2NC(=O)[C@H](CC(=O)O)NC(=O)[C@H](CCC(=O)O)NC(=O)[C@H](CC(C)C)NC(=O)[C@H](CCn4cc(nn4)CC[C@H](NC(=O)[C@H](Cc4c[nH]c5ccccc45)NC2=O)C(=O)NCC(=O)N[C@@H](Cc2ccc(F)cc2)C(=O)N[C@H](C(N)=O)CSCCC3=O)NC(=O)[C@H](CCC(N)=O)NC1=O` [Example 249], the Kd (usually the concentration at which binding is half-saturated) turned out to be 1200 nM.
